Test results published in PubChem BioAssay AID743396 (Broad Institute, 2014).
Active and inactive are the calls of the source.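 The calls were made as follows: active = fitted curve reaches a 40% rise in fluorescent cells at or below the top valid dose; inactive = opposite-direction effect, or the rest.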

Assay: autofluorescent compounds in non-GFP fibroblasts, dose response, artefact control for X-chromosome reactivation project, imaging, mTEFS fibroblasts, cherry-pick (AID 743396);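 also: raw share of Hoechst-counted cells scored GFP positive without control normalization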
Details: mTEFS fibroblasts autofluorescence, GFP-channel imaging, 3 days; at 19.5 µM (top of the series); cells pretreated with 5-aza-dC

Q: For `Cc1ccc(NC(=O)c2ccc(=O)[nH]c2)cc1S(=O)(=O)N1CCCCCC1`, which % fluorescent cells increase is on record?
A: Its % fluorescent cells increase is 0.615% (inactive).

Q: With `COc1ccccc1N=Nc1c(C)[nH]n(-c2ccccc2)c1=O` as the molecule, how does the % fluorescent cells increase read?
A: The % fluorescent cells increase was 0% (inactive).

Q: Which % fluorescent cells increase does the source give for `COc1ccccc1/C=C/C(=O)OCCCN(C)C` here?
A: Its % fluorescent cells increase is 0% (inactive).

Q: With `O=C(O)c1ccccc1NS(=O)(=O)c1ccc(N/N=C/c2cccc(O)c2O)c([N+](=O)[O-])c1` as the molecule, how does the % fluorescent cells increase read?
A: The % fluorescent cells increase was 12.8% (inactive).

Q: For `CN(C)CC(=O)N1CC2(C1)[C@@H](c1ccccc1)[C@H](CO)N2C(=O)C1CC1`, which % fluorescent cells increase is on record?
A: The % fluorescent cells increase was -0.147% (inactive).

Q: Which % fluorescent cells increase does the source give for `CN(C)CCCNC(=O)/C(=C\c1ccc(-c2ccc(Br)cc2)o1)NC(=O)c1ccccc1` here?
A: The % fluorescent cells increase was -0.006% (inactive).

Q: Which % fluorescent cells increase does the source give for `COc1ccc(C2=C(c3ccccc3)OC(OC)c3cc(F)ccc32)cn1` (configuration not stated) here?
A: Its % fluorescent cells increase is 0.033% (inactive).

Q: Which % fluorescent cells increase does the source give for `COc1cc(/C=C/C(=O)c2ccc3c(c2)OCCO3)cc(Br)c1OCC(=O)N(C)C` here?
A: Its % fluorescent cells increase is 7.79% (inactive).

Q: For `COc1ccc2c3c([nH]c2c1)[C@H](CO)N(C(=O)c1cccnc1)CC31CCN(Cc2ccccc2)CC1`, which % fluorescent cells increase is on record?
A: The % fluorescent cells increase was 0.458% (inactive).

Q: Which % fluorescent cells increase does the source give for `CC1=NN(c2ccc(C)c(C)c2)C(=O)/C1=C\C=C\c1ccc([N+](=O)[O-])o1` here?
A: The % fluorescent cells increase was -0.007% (inactive).

Q: Which % fluorescent cells increase does the source give for `Cn1c2ccccc2c2cnn(CC(=O)Nc3ccccc3Br)c(=O)c21` here?
A: The % fluorescent cells increase was -0.007% (inactive).

Q: With `COc1cc(/C=C2\SC(=S)N(N3CCOCC3)C2=O)cc(OC)c1OC` as the molecule, how does the % fluorescent cells increase read?
A: The % fluorescent cells increase was -0.007% (inactive).

Q: With `CC(=O)Nc1sc(C)c(C)c1C(=O)OCC(=O)Nc1cc(S(C)(=O)=O)ccc1Cl` as the molecule, how does the % fluorescent cells increase read?
A: The % fluorescent cells increase was 0.274% (inactive).

Q: Which % fluorescent cells increase does the source give for `COc1ccc(/C=C2\CCc3ccccc3C2=O)cc1CN1CCOCC1` here?
A: Its % fluorescent cells increase is -0.007% (inactive).

Q: For `CC1=C(Cl)C2=NS(=O)(=O)CCN2C=C1Cl`, which % fluorescent cells increase is on record?
A: Its % fluorescent cells increase is 1.51% (inactive).

Q: For `COc1ccc(NS(=O)(=O)c2ccc(NC(C)=O)cc2)nn1`, which % fluorescent cells increase is on record?
A: Its % fluorescent cells increase is -0.003% (inactive).

Q: With `Cc1ccc(-c2csc(NC(=O)c3cccc([N+](=O)[O-])c3C(=O)O)n2)cc1` as the molecule, how does the % fluorescent cells increase read?
A: The % fluorescent cells increase was 0% (inactive).

Q: With `Nc1ccccc1C#CC(=O)c1ccccc1` as the molecule, how does the % fluorescent cells increase read?
A: Its % fluorescent cells increase is 0% (inactive).

Q: With `CCOC(=O)Nc1cc2c(c(N)n1)N=C(c1ccccc1)CN2` as the molecule, how does the % fluorescent cells increase read?
A: The % fluorescent cells increase was 0.925% (inactive).

Q: For `COc1ccc(Cl)cc1C(=O)Nc1ccccc1N1CCCCC1`, which % fluorescent cells increase is on record?
A: The % fluorescent cells increase was 2.45% (inactive).

Q: With `CC(=Nc1ccc(Cl)cc1N)c1c(O)cc(C)oc1=O` as the molecule, how does the % fluorescent cells increase read?
A: Its % fluorescent cells increase is 0.643% (inactive).

Q: Which % fluorescent cells increase does the source give for `Cc1nnc(SCc2cc(=O)oc3ccc4ccccc4c23)n1Cc1ccccc1` here?
A: The % fluorescent cells increase was 0% (inactive).

Q: With `Cc1cc(C(=O)NCc2cc(F)cc3c2OCOC3)nn1C` as the molecule, how does the % fluorescent cells increase read?
A: The % fluorescent cells increase was -0.003% (inactive).

Q: For `CCOC(=O)c1sc(-c2ccc(F)cc2)cc1NC(=O)Nc1ccccc1OC`, which % fluorescent cells increase is on record?
A: Its % fluorescent cells increase is -0.011% (inactive).

Q: With `COc1ccc(NC(=O)N(C)[C@H]2C[C@H]3c4[nH]c5ccc(-c6ccc(OC)cc6)cc5c4CCN3C(=O)[C@H]2[C@H](C)O)cc1` as the molecule, how does the % fluorescent cells increase read?
A: Its % fluorescent cells increase is 0.507% (inactive).

Q: For `Cc1cccc(OCC(=O)N(C)c2c(N)n(Cc3ccccc3)c(=O)[nH]c2=O)c1C`, which % fluorescent cells increase is on record?
A: Its % fluorescent cells increase is 0.02% (inactive).

Q: With `COc1ccc(S(=O)(=O)N(C)C[C@H]2OCCCC[C@@H](C)Oc3ccc(NC(=O)NC(C)C)cc3C(=O)N([C@@H](C)CO)C[C@H]2C)cc1` as the molecule, how does the % fluorescent cells increase read?
A: The % fluorescent cells increase was 0.53% (inactive).

Q: With `COc1cc(NC(C)CCc2ccccc2)cc(OC)c1OC` (configuration not stated) as the molecule, how does the % fluorescent cells increase read?
A: The % fluorescent cells increase was 0% (inactive).

Q: With `Cc1ccc(-c2nc3ccc(Br)cn3c2Cc2ccccc2C(F)(F)F)cc1` as the molecule, how does the % fluorescent cells increase read?
A: Its % fluorescent cells increase is 0.042% (inactive).

Q: With `CCC1Oc2ccc(C)cc2N(CC(=O)N2CCCC2)C1=O` (configuration not stated) as the molecule, how does the % fluorescent cells increase read?
A: Its % fluorescent cells increase is 0.001% (inactive).

Q: With `CCOC(=O)C1CCN(c2c(NCc3ccc(C(=O)NC4CCCC4)cc3)c(=O)c2=O)CC1` as the molecule, how does the % fluorescent cells increase read?
A: Its % fluorescent cells increase is 0% (inactive).

Q: For `CCOC(=O)C1(Cc2ccccc2C)CCCN(C(=O)CSC)C1` (configuration not stated), which % fluorescent cells increase is on record?
A: Its % fluorescent cells increase is 0% (inactive).

Q: For `CN(C)c1ccc(NC2=C(Cl)C(=O)c3ccccc3C2=O)cc1`, which % fluorescent cells increase is on record?
A: The % fluorescent cells increase was -0.006% (inactive).

Q: With `Cc1ccc(NCc2nnc(SCC(=O)NNC(=O)Cc3ccccc3)n2C)cc1` as the molecule, how does the % fluorescent cells increase read?
A: The % fluorescent cells increase was 0.009% (inactive).

Q: Which % fluorescent cells increase does the source give for `COc1ccc(CCn2c(C)cc(C(=O)CN3C(=O)C(=O)N(Cc4ccco4)C3=O)c2C)cc1` here?
A: Its % fluorescent cells increase is 0% (inactive).

Q: With `CCN(CC)CCCN=Cc1c(O)n(-c2cccc(C)c2)c(=O)c2ccccc12` as the molecule, how does the % fluorescent cells increase read?
A: The % fluorescent cells increase was -0.011% (inactive).

Q: With `CCCOc1ccc(Oc2nc(-c3ccncc3)nc3ccccc23)cc1` as the molecule, how does the % fluorescent cells increase read?
A: Its % fluorescent cells increase is 0.007% (inactive).

Q: Which % fluorescent cells increase does the source give for `Cc1ccc(-c2csc3nc4c5ccccc5c(NCCCN(C)C)nn4c(=O)c23)cc1` here?
A: Its % fluorescent cells increase is 0% (inactive).

Q: For `CCCCn1nnnc1C(c1ccccc1)N1CCN(c2ccc(C)cc2)CC1` (configuration not stated), which % fluorescent cells increase is on record?
A: The % fluorescent cells increase was -0.003% (inactive).

Q: Which % fluorescent cells increase does the source give for `C[C@@H]1CN([C@H](C)CO)C(=O)c2cc(NC(=O)Nc3ccc4c(c3)OCO4)ccc2O[C@@H](C)CCCCO[C@@H]1CN(C)C(=O)Cc1ccccc1` here?
A: Its % fluorescent cells increase is 0.027% (inactive).

Q: With `COc1ccc(Nc2nc(N)c(C(=O)c3ccc(F)cc3)s2)cc1` as the molecule, how does the % fluorescent cells increase read?
A: The % fluorescent cells increase was 0% (inactive).

Q: With `COc1ccc(-c2ccc(C(=O)NCc3cccs3)c3occc23)c(C)c1` as the molecule, how does the % fluorescent cells increase read?
A: Its % fluorescent cells increase is 0.07% (inactive).
